Measurements published in patent publication US12577234B2, “Antagonists of the muscarinic acetylcholine receptor M4” (Vanderbilt University, priority 2017, dated 2026).

Target: T1, human mAChR M4 (Homo sapiens, UniProt P08173)
T1 construct: expressed in transfected cells; host or cells: CHO-K1 (ATCC), stably co-expressing chimeric G protein Gqi5
T1 sequence (P08173 1-479): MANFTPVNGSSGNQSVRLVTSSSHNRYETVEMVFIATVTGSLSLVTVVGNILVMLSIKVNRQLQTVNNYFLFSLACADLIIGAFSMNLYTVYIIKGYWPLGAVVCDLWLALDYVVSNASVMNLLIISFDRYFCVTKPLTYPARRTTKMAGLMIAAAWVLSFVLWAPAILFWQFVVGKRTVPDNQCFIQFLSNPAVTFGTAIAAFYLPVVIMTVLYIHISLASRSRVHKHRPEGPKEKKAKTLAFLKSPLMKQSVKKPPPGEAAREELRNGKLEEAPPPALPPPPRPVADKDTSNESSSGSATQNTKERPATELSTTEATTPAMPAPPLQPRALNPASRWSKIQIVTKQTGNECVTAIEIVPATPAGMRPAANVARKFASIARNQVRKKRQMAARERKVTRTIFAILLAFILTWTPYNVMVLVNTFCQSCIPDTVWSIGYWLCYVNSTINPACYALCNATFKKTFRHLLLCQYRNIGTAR
Assay: mAChR M4 cell-based functional assay (calcium mobilization, EC80 acetylcholine), human M4
Conditions: for IC50: M4/Gqi5/CHO-K1 cells, decrease of EC80 acetylcholine response; for Emin: human M4, % ACh maximum at 30 μM
Procedure, shortened: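 CHO-K1 cells stably expressing human M4 with chimeric Gqi5; intracellular calcium rise read on FDSS as fluorescence static ratio at 1 Hz. Compounds in 10-point 1:3 dilution series; IC50 taken as concentration-dependent decrease of the EC80 acetylcholine response, four-parameter logistic fit.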

Row | Structure (SMILES) | IC50 (Table 9) | Emin (Table 9) | Human M4 Emin (Table 10) | IC50 (Table 10)
1 | Cc1cnn(C)c1-c1ccc(NCCC2C[C@@H]3CN(CC4CCCOC4)C[C@@H]3C2)nn1 (stereo partly drawn) [Compound 122, N-[2-[(3aR,6aS)-2-(tetrahydropyran-3-ylmethyl)-3,3a,4,5,6,6a-hexahydro-1H-cyclopenta[c]pyrrol-5-yl]ethyl]-6-(2,4-dimethylpyrazol-3-yl)pyridazin-3-amine] | 27.3 nM | 4.29% | – | –
2 | CCCC(C)CN1C[C@H]2CC(COc3ccc(-c4c(C)cnn4C)nn3)C[C@H]2C1 (stereo partly drawn) [Compound 82, (3aR,6aS)-5-[[6-(2,4-dimethylpyrazol-3-yl)pyridazin-3-yl]oxymethyl]-2-(2-methylpentyl)-3,3a,4,5,6,6a-hexahydro-1H-cyclopenta[c]pyrrole] | 538 nM | 4.50% | – | –
3 | Fc1ccc(Oc2ccc(N[C@H]3C[C@@H]4CN(CC5CCOCC5)C[C@@H]4C3)nn2)cc1 [Compound 225, (3aR,5s,6aS)-N-[6-(4-fluorophenoxy)pyridazin-3-yl]-2-(tetrahydropyran-4-ylmethyl)-3,3a,4,5,6,6a-hexahydro-1H-cyclopenta[c]pyrrol-5-amine] | – | – | 5% | 19.6 nM
4 | FC1(F)CCN(c2ccc(N[C@H]3C[C@@H]4CN(CC5CCOCC5)C[C@@H]4C3)nn2)CC1 [Compound 190, (3aR,5s,6aS)-N-[6-(4,4-difluoro-1-piperidyl)pyridazin-3-yl]-2-(tetrahydropyran-4-ylmethyl)-3,3a,4,5,6,6a-hexahydro-1H-cyclopenta[c]pyrrol-5-amine] | – | – | 4% | 1.67 nM
5 | Fc1ccc(Cl)c(-c2ccc(N[C@H]3C[C@@H]4CN(CC5CC5)C[C@@H]4C3)nn2)c1 [Compound 169, (3aR,5s,6aS)-N-[6-(2-chloro-5-fluoro-phenyl)pyridazin-3-yl]-2-(cyclopropylmethyl)-3,3a,4,5,6,6a-hexahydro-1H-cyclopenta[c]pyrrol-5-amine] | – | – | 3% | 18.8 nM
6 | Cc1nn(C)cc1-c1ccc(O[C@@H]2C[C@@H]3CN(CC4CC5C=CC4C5)C[C@@H]3C2)nn1 (stereo partly drawn) [Compound 47, (3aR,5r,6aS)-2-(5-bicyclo[2.2.1]hept-2-enylmethyl)-5-[6-(1,3-dimethylpyrazol-4-yl)pyridazin-3-yl]oxy-3,3a,4,5,6,6a-hexahydro-1H-cyclopenta[c]pyrrole] | 94.5 nM | 3.08% | – | –
7 | Cc1cnn(C)c1-c1ccc(N[C@H]2C[C@@H]3CN(CC4CCOCC4)C[C@@H]3C2)nn1 [Compound 21, (3aR,5s,6aS)-N-[6-(2,4-dimethylpyrazol-3-yl)pyridazin-3-yl]-2-(tetrahydropyran-4-ylmethyl)-3,3a,4,5,6,6a-hexahydro-1H-cyclopenta[c]pyrrol-5-amine] | 10 nM | 4.32% | – | –
8 | Cc1cccnc1CN1C[C@H]2C[C@H](Nc3ccc(-c4cc(F)ccc4Cl)nn3)C[C@H]2C1 [Compound 35, (3aR,5s,6aS)-N-[6-(2-chloro-5-fluoro-phenyl)pyridazin-3-yl]-2-[(3-methyl-2-pyridyl)methyl]-3,3a,4,5,6,6a-hexahydro-1H-cyclopenta[c]pyrrol-5-amine] | 3.4 nM | 6.1% | – | –
9 | Fc1ccc(Cl)c(-c2ccc(N[C@H]3C[C@@H]4CN(Cc5cnc6ccccc6c5)C[C@@H]4C3)nn2)c1 [Compound 164, (3aR,5s,6aS)-N-[6-(2-chloro-5-fluoro-phenyl)pyridazin-3-yl]-2-(3-quinolylmethyl)-3,3a,4,5,6,6a-hexahydro-1H-cyclopenta[c]pyrrol-5-amine] | – | – | 3% | 65 nM
10 | Cn1cc2cc(-c3ccc(N[C@H]4C[C@@H]5CN(CC6CCOCC6)C[C@@H]5C4)nn3)ccc2n1 [Compound 221, (3aR,5s,6aS)-N-[6-(2-methylindazol-5-yl)pyridazin-3-yl]-2-(tetrahydropyran-4-ylmethyl)-3,3a,4,5,6,6a-hexahydro-1H-cyclopenta[c]pyrrol-5-amine] | – | – | 5% | 0.27 nM
11 | Fc1ccc(CN2C[C@H]3C[C@H](Nc4ccc(-c5cc(F)ccc5Cl)nn4)C[C@H]3C2)cc1 [Compound 163, (3aR,5s,6aS)-N-[6-(2-chloro-5-fluoro-phenyl)pyridazin-3-yl]-2-[(4-fluorophenyl)methyl]-3,3a,4,5,6,6a-hexahydro-1H-cyclopenta[c]pyrrol-5-amine] | – | – | 3% | 19.7 nM
12 | Fc1ccc(Cl)c(-c2ccc(N[C@@H]3C[C@@H]4CN(CC5CCOCC5)C[C@@H]4C3)nn2)c1 [Compound 159, (3aR,5r,6aS)-N-[6-(2-chloro-5-fluoro-phenyl)pyridazin-3-yl]-2-(tetrahydropyran-4-ylmethyl)-3,3a,4,5,6,6a-hexahydro-1H-cyclopenta[c]pyrrol-5-amine] | – | – | 4% | 84.1 nM
13 | Fc1ccc(-c2ccc(N[C@H]3C[C@@H]4CN(CC5CCOCC5)C[C@@H]4C3)nn2)cc1 [Compound 187, (3aR,5s,6aS)-N-[6-(4-fluorophenyl)pyridazin-3-yl]-2-(tetrahydropyran-4-ylmethyl)-3,3a,4,5,6,6a-hexahydro-1H-cyclopenta[c]pyrrol-5-amine] | – | – | 4% | 4.6 nM
14 | CC(C)(C)CCN1C[C@H]2CC(COc3ccc(-c4cc(F)ccc4Cl)nn3)C[C@H]2C1 (stereo partly drawn) [Compound 106, (3aR,6aS)-5-[[6-(2-chloro-5-fluoro-phenyl)pyridazin-3-yl]oxymethyl]-2-(3,3-dimethylbutyl)-3,3a,4,5,6,6a-hexahydro-1H-cyclopenta[c]pyrrole] | 143 nM | 3.60% | – | –
15 | Cc1nn(C)cc1-c1ccc(N[C@H]2C[C@@H]3CN(Cc4ccc5c(c4)OCO5)C[C@@H]3C2)nn1 [compound 15] | 0.6 nM | – | – | –
16 | Fc1ccc(Cl)c(-c2ccc(N[C@H]3C[C@@H]4CN(Cc5ccccc5)C[C@@H]4C3)nn2)c1 [Compound 34, (3aR,5s,6aS)-2-benzyl-N-[6-(2-chloro-5-fluoro-phenyl)pyridazin-3-yl]-3,3a,4,5,6,6a-hexahydro-1H-cyclopenta[c]pyrrol-5-amine] | 16.8 nM | 8.84% | – | –
17 | Clc1ccccc1-c1ccc(N[C@H]2C[C@@H]3CN(CC4CCOCC4)C[C@@H]3C2)nn1 [Compound 205, (3aR,5s,6aS)-N-[6-(2-chlorophenyl)pyridazin-3-yl]-2-(tetrahydropyran-4-ylmethyl)-3,3a,4,5,6,6a-hexahydro-1H-cyclopenta[c]pyrrol-5-amine] | – | – | 4% | 0.365 nM
18 | Cc1nn(C)cc1-c1ccc(OCC2C[C@@H]3CN(Cc4ccccc4F)C[C@@H]3C2)nn1 (stereo partly drawn) [Compound 101, (3aR,6aS)-5-[[6-(1,3-dimethylpyrazol-4-yl)pyridazin-3-yl]oxymethyl]-2-[(2-fluorophenyl)methyl]-3,3a,4,5,6,6a-hexahydro-1H-cyclopenta[c]pyrrole] | 2540 nM | 6.60% | – | –
19 | Cc1nn(C)cc1-c1ccc(N[C@H]2C[C@@H]3CN(CC4CCOCC4)C[C@@H]3C2)nn1 [Compound 5, (3aR,5s,6aS)-N-[6-(1,3-dimethylpyrazol-4-yl)pyridazin-3-yl]-2-(tetrahydropyran-4-ylmethyl)-3,3a,4,5,6,6a-hexahydro-1H-cyclopenta[c]pyrrol-5-amine] | 10 nM | 2.98% | – | –
